Experimental data reported in patent US20230399289A1, “ITACONIC ACID DERIVATIVES” (Sitryx Therapeutics Limited, priority 2020, published 2023).

Columns and labels:
[1] = tested on: IL-1β cytokine output from THP-1 cells; assay: THP-1 AlphaLISA IL-1β cytokine assay; assay type: cell-based; conditions: Homo sapiens, THP-1, differentiated THP-1 cells, LPS 24 hr then Nigericin 1 hour
Experimental: (§1) Measuring Inhibitory Effects on IL-1β and IL-6 Cytokine Output from THP-1s
(§2) The cytokine inhibition profiles of compounds of formula (I) were determined in a differentiated THP-1 cell assay. All assays were performed in RPMI-1640 growth medium (Gibco), supplemented with 10% fetal bovine serum (FBS; Gibco), 1% penicillin-streptomycin and 1% sodium pyruvate unless specified otherwise. The IL-1β and IL-6 cytokine inhibition assays were each run in a background of differentiated THP-1 cells as described below. All reagents described were from Sigma-Aldrich unless specified otherwise. Compounds were prepared as 10 mM DMSO stocks.
(§3) THP-1 cells were expanded as a suspension up to 80% confluence in appropriate growth medium. Cells were harvested, suspended, and treated with an appropriate concentration of phorbol 12-myristate 13-acetate (PMA) over a 72 hr period (37° C./5% CO2).
(§4) Following 72 hrs of THP-1 cell incubation, cellular medium was removed and replaced with fresh growth media containing 1% of FBS. Working concentrations of compounds were prepared separately in 10% FBS treated growth medium and pre-incubated with the cells for 30 minutes (37° C./5% CO2). Following the 30 minute compound pre-incubation, THP-1s were treated with an appropriate concentration of LPS and the THP-1s were subsequently incubated for a 24 hr period (37° C./5% CO2). An appropriate final concentration of Nigericin was then dispensed into the THP-1 plates and incubated for 1 hour (37° C./5% CO2) before THP-1 supernatants were harvested and collected in separate polypropylene 96-well holding plates.
(§5) Reagents from each of the […] and IL-6 commercial kits (Perkin Elmer) were prepared and run according to the manufacturer's instructions. Subsequently, fluorescence signal detection in a microplate reader was measured (EnVision® Multilabel Reader, Perkin Elmer).
(§6) Percentage inhibition was calculated per cytokine by normalising the sample data to the high and low controls used within each plate (+/−LPS respectively). Percentage inhibition was then plotted against compound concentration and the 50% inhibitory concentration (IC50) was determined from the resultant concentration-response curve.

[2] = tested on: IL-6 cytokine output from THP-1 cells; assay: THP-1 AlphaLISA IL-6 cytokine assay; assay type: cell-based; conditions: Homo sapiens, THP-1, differentiated THP-1 cells, LPS 24 hr then Nigericin 1 hour
Experimental: as §1, §2, §3, §4, §5, §6

[3] = tested on: NRF2 (nuclear factor erythroid 2-related factor 2); assay: NRF2 +/−GSH activation assay (DiscoverX PathHunter NRF2 translocation kit, U2OS cells); assay type: cell-based; conditions: Homo sapiens; for Emax: U2OS, normalised to dimethyl fumarate high control; for EC50: U2OS PathHunter cells, 6 hours
[4] = Hepatocyte stability assay, human; assay type: in vitro ADME; conditions: cryopreserved hepatocytes, 10 μM compound, 0.5×10^6 cells/mL, 60 min, read-out: T½
Description: (§7) Defrosted cryo-preserved hepatocytes (viability>70%) may be used to determine the metabolic stability of a compound via calculation of intrinsic clearance (Clint; a measure of the removal of a compound from the liver in the absence of blood flow and cell binding). Clearance data are particularly important for in vitro work as they can be used in combination with in vivo data to predict the half-life and oral bioavailability of a drug.
(§8) The metabolic stability in hepatocytes assay involves a time-dependent reaction using both positive and negative controls. The cells were pre-incubated at 37° C. and spiked with test compound (and positive control); samples were taken at pre-determined time intervals and analysed to monitor the change in concentration of the initial drug compound over 60 minutes. A buffer incubation reaction (with no hepatocytes present) acted as a negative control and two cocktail solutions, containing compounds with known high and low clearance values (verapamil/7-hydroxycoumarin and propranolol/diltiazem), acted as positive controls. • 1. The assay was run with a cell concentration of 0.5×10^6 cells/mL in Leibovitz buffer. • 2. All compounds and controls were run in duplicate. • 3. Compound concentration was 10 μM. • 4. All compounds and controls were incubated with both cells and buffer to show turnover was due to hepatic metabolism. • 5. All wells on the incubation plate had 326.7 μL of either cells or buffer added. • 6. Prior to assay, cell and buffer-only incubation plates were preincubated for 10 mins at 37° C. • 7. The assay was initiated by adding compounds, 3.3 μL of 1 mM in 10% DMSO-90% Buffer; final DMSO concentration is 0.1%. • 8. Samples were taken at regular timepoints (0, 5, 10, 20, 40, 60 min) until 60 mins. • 9. Sample volume was 40 μL and was added to 160 μL of crash solvent (acetonitrile with internal standard) and stored on ice. • 10. At the end of the assay, the crash plates were centrifuged at 3500 rpm for 20 mins at 4° C. • 11. 80 μL of clear supernatant was removed and mixed with 80 μL of deionised water before being analysed by LC-MS/MS.
(§9) Raw LC-MS/MS data was exported to, and analysed in, Microsoft Excel for determination of intrinsic clearance. The percentage remaining of a compound was monitored using the peak area of the initial concentration as 100%. Intrinsic clearance and half-life values were calculated using a graph of the natural log of percentage remaining versus the time of reaction in minutes. Half-life (min) and intrinsic clearance (Clint in μL min^−1 10^−6 cells) values were calculated using the gradient of the graph (the elimination rate constant, k) and Equations 1 and 2.

hepatocytes [5] = assay: Hepatocyte stability assay, human; assay type: in vitro ADME; conditions: 10 μM compound, 0.5×10^6 cells/mL, 60 min
Description: as §7, §8, §9

[6] = Hepatocyte stability assay, mouse; assay type: in vitro ADME; conditions: cryopreserved hepatocytes, 10 μM compound, 0.5×10^6 cells/mL, 60 min, read-out: T½
Description: as §7, §8, §9

hepatocytes [7] = assay: Hepatocyte stability assay, mouse; assay type: in vitro ADME; conditions: 10 μM compound, 0.5×10^6 cells/mL, 60 min
Description: as §7, §8, §9

[8] = +GSH, 30 minute compound-GSH pre-incubation

Structure (SMILES) | IC50 [1] [µM] | IC50 [2] [µM] | Emax ([3]; +GSH) [%] | Emax ([3]; −GSH) [%] | EC50 [3, 8] [µM] | EC50 ([3]; −GSH) [µM] | half-life at 10 μM [4] [h] | CIint (hepatocytes [5]) [μL min^−1 10^−6 cells] | half-life at 10 μM [6] [h] | CIint (hepatocytes [7]) [μL min^−1 10^−6 cells]
C=C(CC(=O)OC1(c2c(Cl)cccc2Cl)CCC1)C(=O)OCC(=O)O [Example 8, 2-((4-(1-(2,6-dichlorophenyl)cyclobutoxy)-2-methylene-4-oxobutanoyl)oxy)acetic acid] | 15.2 | 6 | 170 | 193 | 18.7 | 12.2 | 2.37 | 11 | 0.15 | 223
C=C(CC(=O)OC1(c2cc(Cl)cc(Cl)c2)CCC1)C(=O)OCCC(=O)O [Example 13, 3-((4-(1-(3,5-dichlorophenyl)cyclobutoxy)-2-methylene-4-oxobutanoyl)oxy)propanoic acid] | 12.5 | 5.9 | 143 | 251 | 11.6 | 7.6 | 1.67 | 16 | < 0.05 | >460
C=C(CC(=O)OC1(c2ccc(C(F)(F)F)cc2)CCC1)C(=O)OCCC(=O)O [Example 22, 3-((2-methylene-4-oxo-4-(1-(4-(trifluoromethyl)phenyl)cyclobutoxy)butanoyl)oxy)propanoic acid] | 10.3 | 11.2 | 183 | 225 | 22.3 | 14.9 | 2.6 | 9 | 0.2 | 128
C=C(CC(=O)OC1(c2ccc(C(F)(F)F)cc2)CCC1)C(=O)OC1(CC(=O)O)COC1 [Example 33, 2-(3-((2-methylene-4-oxo-4-(1-(4-(trifluoromethyl)phenyl)cyclobutoxy)butanoyl)oxy)oxetan-3-yl)acetic acid] | 2.4 | 5.7 | 118 | 162 | 20.7 | 8.4 | 3.37 | 7 | 0.3 | 82
C=C(CC(=O)OC1(c2ccc(SC(F)(F)F)cc2)CCC1)C(=O)OCC(=O)O [Example 34, 2-((2-methylene-4-oxo-4-(1-(4-((trifluoromethyl)thio)phenyl)cyclobutoxy)butanoyl)oxy)acetic acid] | 5.1 | 2.7 | 2.8 | 0 | > 100 | > 54.8 | 1.93 | 11 | 0.383 | 74
